Assay results: BindingDB's records for doi:10.1021/jm051134w (Parion Sciences, 2006)

Each compound was assayed against Amiloride-sensitive sodium channel (Canis familiaris) (assay: Inhibition of dog bronchi prototypical epithelial sodium channel by electrophysiological assay).

Row | IC50 | Structure (SMILES)
1 | 29 nM | NC(=NCCCCc1ccccc1)NC(=O)c1nc(Cl)c(N)nc1N [N-(3,5-diamino-6-chloropyrazine-2-carbonyl)-N'-(4-phenylbutyl)guanidine]
2 | 7 nM | NC(=NCCCCc1ccc(OCCCO)cc1)NC(=O)c1nc(Cl)c(N)nc1N [N-(3,5-diamino-6-chloropyrazine-2-carbonyl)-N'-{4-[4-(3-hydroxypropoxy)phenyl]-butyl}guanidine]
3 | 14 nM | NC(=NCCCCc1ccc(CO)cc1)NC(=O)c1nc(Cl)c(N)nc1N [N-(3,5-diamino-6-chloropyrazine-2-carbonyl)-N'-[4-(4-hydroxymethylphenyl)-butyl]guanidine]
4 | 107 nM | NC(=NCCO)NC(=O)c1nc(Cl)c(N)nc1N [N-(3,5-diamino-6-chloropyrazine-2-carbonyl)-N'-(2-hydroxyethyl)guanidine]
5 | 41 nM | COc1ccc(COCCN=C(N)NC(=O)c2nc(Cl)c(N)nc2N)cc1 [N-(3,5-diamino-6-chloropyrazine-2-carbonyl)-N'-[2-(4-methoxybenzyloxy)ethyl]-guanidine]
6 | 124 nM | COc1ccc(CCCN=C(N)NC(=O)c2nc(Cl)c(N)nc2N)cc1 [N-(3,5-diamino-6-chloropyrazine-2-carbonyl)-N'-[3-(4-methoxyphenyl)propyl]-guanidine]
7 | 9 nM | NC(=NCCCCc1ccc(OCCO)cc1)NC(=O)c1nc(Cl)c(N)nc1N [N-(3,5-diamino-6-chloropyrazine-2-carbonyl)-N'-{4-[4-(2-hydroxyethoxy)phenyl]-butyl}guanidine]
8 | 477 nM | NC(=NCCCCCCCCc1ccccc1)NC(=O)c1nc(Cl)c(N)nc1N [N-(3,5-diamino-6-chloropyrazine-2-carbonyl)-N'-(8-phenyloctyl)guanidine]
9 | 88 nM | NC(=NCCCc1ccc(O)cc1)NC(=O)c1nc(Cl)c(N)nc1N [N-(3,5-diamino-6-chloropyrazine-2-carbonyl)-N'-[3-(4-hydroxyphenyl)propyl]-guanidine]
10 | 28 nM | NC(=NCCCCc1ccccc1OCC(O)CO)NC(=O)c1nc(Cl)c(N)nc1N (stereo not given) [N-(3,5-diamino-6-chloropyrazine-2-carbony)-N'-{4-[2-(2,3-dihydroxypropoxy)-phenyl]butyl}guanidine]
11 | 26 nM | NC(=NCCCCc1cccc(OCC(O)CO)c1)NC(=O)c1nc(Cl)c(N)nc1N (stereo not given) [N-(3,5-diamino-6-chloropyrazine-2-carbony)-N'-{4-[3-(2,3-dihydroxypropoxy)-phenyl]butyl}guanidine]
12 | 108 nM | CCCCCCCCN=C(N)NC(=O)c1nc(Cl)c(N)nc1N [N-(3,5-diamino-6-chloropyrazine-2-carbonyl)-N'-octylguanidine]
13 | 20 nM | NC(=NCCCCc1cccc(O)c1)NC(=O)c1nc(Cl)c(N)nc1N [N-(3,5-diamino-6-chloropyrazine-2-carbonyl)-N'-[4-(5-hydroxyphenyl)butyl]-guanidine]
14 | 31 nM | NC(=NCCCCc1ccccc1OCCO)NC(=O)c1nc(Cl)c(N)nc1N [N-(3,5-diamino-6-chloropyrazine-2-carbonyl)-N'-{4-[2-(2-hydroxyethoxy)phenyl]-butyl}guanidine]
15 | 68 nM | NC(=NCCCCCc1ccccc1)NC(=O)c1nc(Cl)c(N)nc1N [N-(3,5-diamino-6-chloropyrazine-2-carbonyl)-N'-(5-phenylpentyl)guanidine]
16 | 17 nM | NC(=NCCCCc1cccc(OCCO)c1)NC(=O)c1nc(Cl)c(N)nc1N [N-(3,5-diamino-6-chloropyrazine-2-carbonyl)-N'-{4-[3-(2-hydroxyethoxy)phenyl]-butyl}guanidine]
17 | 62 nM | NC(=NCCc1ccc(O)cc1)NC(=O)c1nc(Cl)c(N)nc1N [N-(3,5-diamino-6-chloropyrazine-2-carbonyl)-N'-[2-(4-hydroxyphenyl)ethyl]-guanidine]
18 | 32 nM | NC(=NCCCOc1ccc(O)cc1)NC(=O)c1nc(Cl)c(N)nc1N [N-(3,5-diamino-6-chloropyrazine-2-carbonyl)-N'-[3-(4-hydroxyphenoxy)propyl]-guanidine]
19 | 51 nM | NC(=NCCCCc1ccc(C(=O)O)cc1)NC(=O)c1nc(Cl)c(N)nc1N [4-{4-[N'-(3,5-diamino-6-chloropyrazine-2-carbonyl)guanidino]-butyl}benzoic acid]
20 | 73 nM | NC(=NCCCCc1ccc(OC2O[C@H](C(=O)O)[C@@H](O)[C@H](O)[C@H]2O)cc1)NC(=O)c1nc(Cl)c(N)nc1N (stereo not given in full) [6-(4-{4-[N'-(3,5-diamino-6-chloropyrazine-2-carbonyl)-guanidino]butyl}phenoxy)-3,4,5-trihydroxytetrahydropyran-2-carboxylic acid]
21 | 22 nM | COC(=O)c1ccc(CCCCN=C(N)NC(=O)c2nc(Cl)c(N)nc2N)cc1 [4-{4-[N'-(3,5-diamino-6-chloropyrazine-2-carbonyl)guanidino]-butyl}benzoic acid methyl ester]
22 | 15 nM | COc1ccc(CCCCN=C(N)NC(=O)c2nc(Cl)c(N)nc2N)cc1 [N-(3,5-diamino-6-chloropyrazine-2-carbonyl)-N'-[4-(4-methoxyphenyl)butyl]-guanidine]
23 | 77 nM | COc1ccc(CCCCCN=C(N)NC(=O)c2nc(Cl)c(N)nc2N)cc1 [N-(3,5-diamino-6-chloropyrazine-2-carbonyl)-N'-[5-(4-methoxyphenyl)pentyl]-guanidine]
24 | 87 nM | CCCCCCN=C(N)NC(=O)c1nc(Cl)c(N)nc1N [N-(3,5-diamino-6-chloropyrazine-2-carbonyl)-N'-hexylguanidine]
25 | 21 nM | NC(=NCCCCc1ccc(N)cc1)NC(=O)c1nc(Cl)c(N)nc1N [1-(4-(4-aminophenyl)butyl)-3-(3,5-diamino-2-chloropyrazine-6-carbonyl)guanidine]
